These results are taken from PMC11324126, “Novel coumarin-6-sulfonamide-chalcone hybrids as glutathione transferase P1-1 inhibitors” (PLOS ONE, 2024).

“Also recorded” adds a separate entry of the source. Read-outs that look alike come from different tables or passages of the source.

Data set [1] has as its target T1, hGSTP1-1 (Homo sapiens, UniProt P09211).
T1 construct: made in house; host or cells: E. coli
The data set can be described thus: hGSTP1-1 enzyme activity/inhibition assay (CDNB and GSH substrates, 340 nm). The format is biochemical. Details: key to Enzyme Inhibition (%) (symbol): *: Coumarin derivative 5e did not exhibit significant inhibition. Particulars: for inhibition at 10 µM: pH 6.5, 10 μM compound; for inhibition at 10 µM / Enzyme Inhibition (%) / IC50: mean ± SE, triplicate; for IC50: concentration-response inhibition, read-out: IC50 towards hGSTP1-1. On the procedure: Determination of hGSTP1-1 activity was carried out in potassium phosphate buffer (100 mM, pH 6.5, 1 mL total volume), at 25°C using as substrates CDNB and GSH. The reaction was monitoring at 340 nm for 120 s, as described previously. For inhibition analysis, coumarin derivatives were dissolved in DMSO (100 μΜ) and added to the assay mixture at 10 μΜ final concentration. The mixture was incubated at 25°C for 1 min, prior adding the enzyme sample. The IC50 values were determined from a graph of the remaining GST activity (%) against inhibitor concentration. GraphPad Prism 9.3.1 (GraphPad Prism Software, Inc.) was used for determination of IC50 values. Kinetic inhibition analysis was performed as previously described with minor modifications. Initial velocities using CDNB as a variable substrate (typically 14–1000 μM) were determined in the presence of constant concentration of GSH (2.5 mM) in the absence and presence of the coumarin derivative 5g (0–50 μM). Initial velocities using GSH as a variable substrate (typically 37.5–3750 μΜ) were determined in the presence of 1 mM CDNB in the absence and presence of the coumarin derivative 5g (0–50 μM). Enzyme assays were performed in triplicates and initial velocities were corrected for spontaneous reaction rates.

Data set [2] is described as follows: MTT cytotoxicity assay, DU-145. Particulars: human, DU-145 cells, mean ± SE, triplicate, read-out: CC50 against DU-145. The format is cell-based. On the procedure: (§1) The MTT colorimetric assay was used to evaluate the in vitro cytotoxicity of 5a, 5f and 5g coumarin derivatives against PC3, DU-145 and MCF-7 cancer cell lines. Cancer cells were inoculated into a 96-well plate (initially at a density of 8 x 10^3 cells/well in 100 μL of culture medium) and were cultivated for 24 h, at 37°C in a CO2 incubator (5%). Different concentrations of 5a, 5f and 5g derivatives (1.5 μΜ to 200 μΜ), were added to cultures and incubated for 48 h. […] The culture medium was then replaced with 100 μL of MTT solution (1 mg/mL) and after 2 h incubation, the solution was aspirated and the produced formazan crystals were dissolved in isopropanol (100 μL). The absorbance was measured at 540 nm. Dose–cell viability graphs were created using GraphPad Prism 9.3.1 and the CC50 values were determined.
On the technique in general: Tetrazolium dyes change colour on reduction, which living cells bring about.

Data set [3] in a line: MTT cytotoxicity assay, MCF-7. Format: cell-based. The following applies: human, MCF-7 cells, mean ± SE, triplicate, read-out: CC50 against MCF-7. On the procedure:
as §1

Data set [4] is described as follows: MTT cytotoxicity assay, PC3. The format is cell-based. Particulars: human, PC3 cells, mean ± SE, triplicate, read-out: CC50 against PC3. On the procedure: as §1
The subject of another data set is HepG2 cells. The arrangement: method as in PMID 29944015. The following applies: read-out: IC50 towards HepG2 cells; cited from earlier work.
The target of data set [5] is T1, hGSTP1-1. Details: method as in doi:10.5505/tjb.2012.30301. The following applies: cited from earlier work.
[6] abbreviates: 10 μM compound, 25°C, pH 6.5, 10 µM.

T1 sequence (P09211 whole entry): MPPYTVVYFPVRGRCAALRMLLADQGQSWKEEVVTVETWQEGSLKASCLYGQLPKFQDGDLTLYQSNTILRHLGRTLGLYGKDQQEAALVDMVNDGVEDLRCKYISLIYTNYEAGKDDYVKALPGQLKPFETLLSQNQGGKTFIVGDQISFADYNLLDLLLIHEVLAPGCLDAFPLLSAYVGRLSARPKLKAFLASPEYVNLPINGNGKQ

For orientation: inhibition means how much of the control response was suppressed. In the case of `O=C(C=Cc1ccc([N+](=O)[O-])cc1)c1ccc(NS(=O)(=O)c2ccc3oc(=O)ccc3c2)cc1` [Compound 5i, N-(4-(3-(4-nitrophenyl)acryloyl)phenyl)-2-oxo-2H-chromene-6-sulfonamide], at hGSTP1-1 [1] (25°C, pH 6.5), 10 µM produced 45.4 ± 0.1% inhibition.

Compound `COc1ccc(C=CC(=O)c2ccc(NS(=O)(=O)c3ccc4oc(=O)ccc4c3)cc2)cc1` [Compound 5c, N-(4-(3-(4-methoxyphenyl)acryloyl)phenyl)-2-oxo-2H-chromene-6-sulfonamide] showed an inhibition at 10 µM against hGSTP1-1 [1] (25°C, pH 6.5) of 67%.

For orientation: IC50 means the midpoint of a concentration-inhibition curve. The CC50 is the concentration that lowers cell viability or growth by half. With `O=C(C=Cc1ccc(F)cc1)c1ccc(NS(=O)(=O)c2ccc3oc(=O)ccc3c2)cc1` [Compound 5f, N-(4-(3-(4-fluorophenyl)acryloyl)phenyl)-2-oxo-2H-chromene-6-sulfonamide], the “Enzyme Inhibition (%)” value on hGSTP1-1 [1] (setting [6]) is reported as 86.9 ± 0.0%. Further, at hGSTP1-1 [1], the half-maximal inhibitory concentration (IC50) was 12.7 ± 0.7 µM. Besides, the inhibition at 10 µM at hGSTP1-1 [1] (25°C, pH 6.5) is above 85%. For the same compound, the CC50 at 48 h turned out to be 47.3 ± 2.7 µM in data set [2], 24.7 ± 1.5 µM in data set [3] and 14.7 ± 0.9 µM in data set [4].

As for `O=C(C=Cc1ccc(Br)cc1)c1ccc(NS(=O)(=O)c2ccc3oc(=O)ccc3c2)cc1` [Compound 5h, N-(4-(3-(4-bromophenyl)acryloyl)phenyl)-2-oxo-2H-chromene-6-sulfonamide], the inhibition at 10 µM on hGSTP1-1 [1] (25°C, pH 6.5) was found to be 71.1 ± 0.1%.

Regarding `O=C(C=Cc1ccccc1)c1ccc(NS(=O)(=O)c2ccc3oc(=O)ccc3c2)cc1` [Compound 5a, N-(4-cinnamoylphenyl)-2-oxo-2H-chromene-6-sulfonamide], the “Enzyme Inhibition (%)” value at hGSTP1-1 [1] (setting [6]) is recorded as 84.6 ± 0.1%. The IC50 on hGSTP1-1 [1] came out at 16.3 µM. On hGSTP1-1 [1] (25°C, pH 6.5), this compound yielded an inhibition at 10 µM above 85%. Further, the CC50 at 48 h was determined as 71.4 ± 5.4 µM in data set [2], 46.8 ± 5.1 µM in data set [3] and 25.3 ± 2.2 µM in data set [4].

As to `C/C(=N\Nc1nc(-c2ccccc2)cs1)c1ccc(NS(=O)(=O)c2ccc3oc(=O)ccc3c2)cc1` [compound II], the IC50 with HepG2 cells was 3.48 ± 0.28 µM.

`COc1cc(C=CC(=O)c2ccc(NS(=O)(=O)c3ccc4oc(=O)ccc4c3)cc2)cc(OC)c1OC` [Compound 5e, 2-oxo-N-(4-(3-(3,4,5-trimethoxyphenyl)acryloyl)phenyl)-2H-chromene-6-sulfonamide]: at hGSTP1-1 [1] (10 μM compound, 25°C, pH 6.5), the “Enzyme Inhibition (%) (symbol)” value was “*” and the “Enzyme Inhibition (%)” value is “no activity”.

Consider `O=[N+]([O-])c1ccc(S(=O)(=O)Nc2ccc3c(c2)CC(Cc2ccc(Cl)cc2)=C3)cc1` [compound III], for which the half-inhibitory concentration (IC50) at hGSTP1-1 [5] was 10.2 µM.

In turn, `COc1ccc(C=CC(=O)c2ccc(NS(=O)(=O)c3ccc4oc(=O)ccc4c3)cc2)c(OC)c1` [Compound 5d, N-(4-(3-(2,4-dimethoxyphenyl)acryloyl)phenyl)-2-oxo-2H-chromene-6-sulfonamide] yielded an inhibition at 10 µM at hGSTP1-1 [1] (25°C, pH 6.5) of 59.3 ± 0.1%.

The term Ki denotes a measure of affinity in units of concentration, obtained from inhibition or displacement. In the case of `O=C(C=Cc1ccc(Cl)cc1)c1ccc(NS(=O)(=O)c2ccc3oc(=O)ccc3c2)cc1` [Compound 5g, N-(4-(3-(4-chlorophenyl)acryloyl)phenyl)-2-oxo-2H-chromene-6-sulfonamide], at hGSTP1-1 [1] (setting [6]), the “Enzyme Inhibition (%)” value amounted to 87.5 ± 0.0%. Further, the “inhibition constant Ki΄ (hGSTP1-1–CDNB complex)” value on hGSTP1-1 [1] (CDNB as variable substrate) was found to be 19.25 ± 1.20 μΜ. The Ki at hGSTP1-1 [1] (CDNB as variable substrate, read-out: inhibition constant Ki (free hGSTP1-1)) came to 4.69 ± 0.11 µM; on hGSTP1-1 [1] (GSH as variable substrate, read-out: inhibition constant Ki), 3.82 ± 0.16 µM. Further, the “inhibition constant Ki΄” value against hGSTP1-1 [1] (GSH as variable substrate) is 25.39 ± 0.60 μΜ. In addition, the IC50 on hGSTP1-1 [1] turned out to be 12.2 ± 0.5 µM. The type of inhibition entry at hGSTP1-1 [1] (kinetic inhibition analysis, Lineweaver-Burk) is “mixed-type inhibitor; also recorded: non-competitive, purely mixed-type inhibitor”. Moreover, the inhibition at 10 µM on hGSTP1-1 [1] (25°C, pH 6.5) was above 85%. For the same compound, the CC50 at 48 h in data set [2] was determined as 36.6 ± 2.7 µM; in data set [3], 17.4 ± 2.9 µM; in data set [4], 11.9 ± 2.5 µM.

In turn, `Cc1ccc(C=CC(=O)c2ccc(NS(=O)(=O)c3ccc4oc(=O)ccc4c3)cc2)cc1` [Compound 5b, 2-oxo-N-(4-(3-(p-tolyl)acryloyl)phenyl)-2H-chromene-6-sulfonamide] gave an inhibition at 10 µM against hGSTP1-1 [1] (25°C, pH 6.5) of 62.8 ± 0.1%.
